According to PubChem BioAssay AID328 (DTP/NCI, 2004):
Where “and” joins values, the source holds several entries; their conditions need not be identical. Identical values can stand only once. Inconclusive results and toxic doses are left out.

Test system: BDF1 mice, P388 leukemia ip, median survival T/C
Assay: NCI In Vivo Anticancer Drug Screen. Data for tumor model P388 Leukemia (intraperitoneal) in B6D2F1 (BDF1) mice
Settings: endpoint: median survival time, higher = longer survival
In short: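 Each value expresses how treatment altered survival: treated-mouse outcome over vehicle-mouse outcome, both groups bearing the transplanted tumour.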

[1] = dose: 100.0 mg/kg/injection, schedule: Q01DX009 (ip), vehicle: Klucel (hydroxypropylcellulose) (HPC)
[2] = dose: 100.0 mg/kg/injection, schedule: Q04DX003 (ip), vehicle: Klucel (hydroxypropylcellulose) (HPC)
[3] = dose: 200.0 mg/kg/injection, schedule: Q01DX009 (ip), vehicle: Klucel (hydroxypropylcellulose) (HPC)
[4] = dose: 200.0 mg/kg/injection, schedule: Q04DX003 (ip), vehicle: Klucel (hydroxypropylcellulose) (HPC)
[5] = dose: 400.0 mg/kg/injection, schedule: Q04DX003 (ip), vehicle: Klucel (hydroxypropylcellulose) (HPC)
[6] = dose: 50.0 mg/kg/injection, schedule: Q04DX003 (ip), vehicle: saline with Tween-80
[7] = dose: 100.0 mg/kg/injection, schedule: Q04DX003 (ip), vehicle: saline with Tween-80
[8] = dose: 100.0 mg/kg/injection, schedule: Q04DX003 (ip), vehicle: saline
[9] = dose: 200.0 mg/kg/injection, schedule: Q04DX003 (ip), vehicle: saline with Tween-80
[10] = dose: 50.0 mg/kg/injection, schedule: Q01DX009 (ip), vehicle: saline
[11] = dose: 100.0 mg/kg/injection, schedule: Q01DX009 (ip), vehicle: saline
[12] = dose: 200.0 mg/kg/injection, schedule: Q01DX009 (ip), vehicle: saline
[13] = dose: 400.0 mg/kg/injection, schedule: Q04DX003 (ip), vehicle: saline with Tween-80
[14] = dose: 6.25 mg/kg/injection, schedule: Q01DX009 (ip), vehicle: saline
[15] = dose: 25.0 mg/kg/injection, schedule: Q01DX009 (ip), vehicle: saline

With O=C(O)CCc1c[nH]c2ccc(N(CCCl)CCCl)cc12 the T/C (dose: 0.04 mg/kg/injection, schedule: Q04DX003 (ip), vehicle: saline with Tween-80) was 109 % of control, the T/C (dose: 0.08 mg/kg/injection, schedule: Q04DX003 (ip), vehicle: saline with Tween-80) was 109 % of control and the T/C (dose: 0.5 mg/kg/injection, schedule: Q04DX003 (ip), vehicle: saline with Tween-80) was 158 % of control. For the same compound, the T/C (dose: 0.5 mg/kg/injection, schedule: Q04DX003 (ip), vehicle: saline) was 231 % of control, the T/C (dose: 0.75 mg/kg/injection, schedule: Q04DX003 (ip), vehicle: saline with Tween-80) was 154 % of control and the T/C (dose: 1.0 mg/kg/injection, schedule: Q04DX003 (ip), vehicle: saline) was 90 % of control.
In the case of CCCCc1ccc(N2C(N)=NC(N)=NC2(C)C)cc1, the T/C (dose: 6.25 mg/kg/injection, schedule: Q01DX005 (ip), vehicle: Klucel (hydroxypropylcellulose) (HPC)) is reported as 111 % of control and the T/C (dose: 12.5 mg/kg/injection, schedule: Q01DX005 (ip), vehicle: Klucel (hydroxypropylcellulose) (HPC)) is reported as 110 % of control.
For CC12CCC(C1)C(C)(C)C2NCCCN1C(=O)c2ccc3c4c(ccc(c24)C1=O)C(=O)N(CCCNC1C2(C)CCC(C2)C1(C)C)C3=O (configuration not stated), the T/C (dose: 6.25 mg/kg/injection, schedule: Q01DX009 (ip), vehicle: Klucel (hydroxypropylcellulose) (HPC)) was 105 % of control, the T/C (dose: 12.5 mg/kg/injection, schedule: Q01DX009 (ip), vehicle: Klucel (hydroxypropylcellulose) (HPC)) was 100 % of control and the T/C (dose: 25.0 mg/kg/injection, schedule: Q01DX009 (ip), vehicle: Klucel (hydroxypropylcellulose) (HPC)) was 115 % of control and 116 % of control.
CCOC(=O)C(C)Cl (configuration not stated) was tested, and the T/C (dose: 50.0 mg/kg/injection, schedule: Q01DX009 (ip), vehicle: Klucel (hydroxypropylcellulose) (HPC)) was 104 % of control, the T/C [1] was 100 % of control and the T/C [2] was 110 % of control. The T/C [3] was 91 % of control, the T/C [4] was 105 % of control and the T/C [5] was 105 % of control.
Cc1ccc(NCCN2CCCCC2)c2c(=O)c3ccccc3sc12 was tested, and the T/C [1] was 115 % of control, the T/C [2] was 115 % of control and the T/C [3] was 110 % of control. The T/C [4] was 115 % of control, the T/C (dose: 264.0 mg/kg/injection, schedule: Q01DX009 (ip), vehicle: Klucel (hydroxypropylcellulose) (HPC)) was 150 % of control and the T/C (dose: 264.0 mg/kg/injection, schedule: Q04DX003 (ip), vehicle: Klucel (hydroxypropylcellulose) (HPC)) was 118 % of control and 120 % of control. The T/C [5] was 122 % of control.
CCC(=O)OC1CC2(C)C(=CC1=O)CCC1C2CCC2(C)C(OC(=O)CC)CCC12 (configuration not stated) was tested, and the T/C (dose: 100.0 mg/kg/injection, schedule: Q01DX001 (ip), vehicle: Klucel (hydroxypropylcellulose) (HPC)) was 90 % of control, the T/C [1] was 104 % of control and the T/C [2] was 108 % of control. The T/C (dose: 200.0 mg/kg/injection, schedule: Q01DX001 (ip), vehicle: Klucel (hydroxypropylcellulose) (HPC)) was 95 % of control, the T/C [3] was 109 % of control and the T/C [4] was 100 % of control. The T/C (dose: 400.0 mg/kg/injection, schedule: Q01DX001 (ip), vehicle: Klucel (hydroxypropylcellulose) (HPC)) was 100 % of control, the T/C (dose: 400.0 mg/kg/injection, schedule: Q01DX009 (ip), vehicle: Klucel (hydroxypropylcellulose) (HPC)) was 109 % of control and the T/C [5] was 95 % of control.
COc1c(C)c2c(c(O)c1C/C=C(\C)CCC(=O)O)C(=O)OC2 was tested, and the T/C (dose: 25.0 mg/kg/injection, schedule: Q01DX010 (ip), vehicle: saline) was 112 % of control and 100 % of control, the T/C (dose: 50.0 mg/kg/injection, schedule: Q01DX010 (ip), vehicle: saline) was 104 % of control and 118 % of control and the T/C (dose: 100.0 mg/kg/injection, schedule: Q01DX010 (ip), vehicle: saline) was 116 % of control and 100 % of control. The T/C (dose: 100.0 mg/kg/injection, schedule: Q04DX002 (ip), vehicle: Klucel (hydroxypropylcellulose) (HPC)) was 100 % of control, the T/C (dose: 200.0 mg/kg/injection, schedule: Q01DX010 (ip), vehicle: saline) was 100 % of control and 118 % of control and the T/C (dose: 200.0 mg/kg/injection, schedule: Q04DX002 (ip), vehicle: Klucel (hydroxypropylcellulose) (HPC)) was 100 % of control. For the same compound, the T/C (dose: 400.0 mg/kg/injection, schedule: Q04DX002 (ip), vehicle: Klucel (hydroxypropylcellulose) (HPC)) was 116 % of control.
With C1=CCONC1 the T/C [6] was 99 % of control, the T/C [7] was 104 % of control and the T/C [8] was 103 % of control. For the same compound, the T/C [9] was 100 % of control, the T/C (dose: 200.0 mg/kg/injection, schedule: Q04DX003 (ip), vehicle: saline) was 120 % of control and the T/C (dose: 400.0 mg/kg/injection, schedule: Q04DX003 (ip), vehicle: saline) was 93 % of control.
For CCCCCCOP(=O)(N1CC1C)N1CC1C (configuration not stated), the T/C [10] was 122 % of control, the T/C [11] was 150 % of control and 182 % of control and the T/C [12] was 86 % of control.
For CCOC(=O)c1ccc(OC(=O)Nc2ccccc2OC)cc1, the T/C [7] was 91 % of control, the T/C [9] was 108 % of control and the T/C [13] was 108 % of control.
With CCCCCCOC(=O)C(O)c1ccccc1 (configuration not stated) the T/C [6] was 109 % of control, the T/C [7] was 95 % of control and the T/C [9] was 95 % of control. The T/C [13] was 100 % of control.
For COc1cc2nc(C)n(C)c(=O)c2cc1OC, the T/C (dose: 50.0 mg/kg/injection, schedule: Q01DX009 (ip), vehicle: saline with Tween-80) was 101 % of control, the T/C (dose: 100.0 mg/kg/injection, schedule: Q01DX009 (ip), vehicle: saline with Tween-80) was 99 % of control and the T/C (dose: 200.0 mg/kg/injection, schedule: Q01DX009 (ip), vehicle: saline with Tween-80) was 99 % of control.
With COC1(OC)C2CCC1C(Cl)=C2Cl the T/C (dose: 3.13 mg/kg/injection, schedule: Q01DX009 (ip), vehicle: saline) was 102 % of control, the T/C [14] was 100 % of control and the T/C [15] was 109 % of control.
In the case of Cc1ccc(S(=O)(=O)NN=C(c2ccccc2)c2ccccc2)cc1, the T/C (dose: 12.5 mg/kg/injection, schedule: Q04DX003 (ip), vehicle: Klucel (hydroxypropylcellulose) (HPC)) is reported as 98 % of control, the T/C (dose: 25.0 mg/kg/injection, schedule: Q04DX003 (ip), vehicle: Klucel (hydroxypropylcellulose) (HPC)) is reported as 103 % of control and the T/C (dose: 50.0 mg/kg/injection, schedule: Q04DX003 (ip), vehicle: Klucel (hydroxypropylcellulose) (HPC)) is reported as 103 % of control. The T/C [2] was 97 % of control and the T/C [4] was 97 % of control.
In the case of COc1cc(C)ccc1C(=O)c1ccc(C)cc1OC, the T/C [2] is reported as 90 % of control, the T/C [4] is reported as 90 % of control and the T/C [5] is reported as 109 % of control.
C=CCOc1ccccc1-c1nnn(C)n1 was tested, and the T/C [7] was 95 % of control, the T/C [9] was 97 % of control and the T/C [13] was 104 % of control.
For CC(=O)O[C@]1(C(C)=O)CC[C@H]2[C@@H]3C=C(Cl)C4=CC(=O)[C@@H]5C[C@@H]5[C@]4(C)[C@H]3CC[C@@]21C, the T/C [1] was 95 % of control, the T/C [2] was 104 % of control and the T/C [3] was 91 % of control. The T/C [4] was 108 % of control and the T/C [5] was 108 % of control.
For C1O[C@@H]1[C@H]1CO1, the T/C [15] was 150 % of control and the T/C (dose: 37.5 mg/kg/injection, schedule: Q01DX009 (ip), vehicle: saline) was 186 % of control.
For COc1ccc2nc3cc(Cl)ccc3c(NCCCNCCCCNCCCNc3c4ccc(Cl)cc4nc4ccc(OC)cc34)c2c1, the T/C (dose: 1.25 mg/kg/injection, schedule: Q01DX009 (ip), vehicle: saline with Tween-80) was 116 % of control and the T/C (dose: 2.5 mg/kg/injection, schedule: Q01DX009 (ip), vehicle: saline with Tween-80) was 107 % of control.
For c1ccc(-c2c[nH]c(-c3ccccc3)c2)cc1, the T/C [2] was 104 % of control, the T/C [4] was 109 % of control and the T/C [5] was 109 % of control.
For NC(N)=NC(N)=Nc1cnccn1, the T/C [15] was 110 % of control, the T/C (dose: 25.0 mg/kg/injection, schedule: Q04DX003 (ip), vehicle: saline) was 100 % of control and the T/C [10] was 120 % of control. The T/C (dose: 50.0 mg/kg/injection, schedule: Q04DX003 (ip), vehicle: saline) was 100 % of control, the T/C [11] was 120 % of control and the T/C [8] was 95 % of control.
For O=C(OC1(c2ccccc2)CCC1)c1cc([N+](=O)[O-])cc([N+](=O)[O-])c1, the T/C (dose: 100.0 mg/kg/injection, schedule: Q01DX001 (ip), vehicle: saline with Tween-80) was 97 % of control, the T/C (dose: 200.0 mg/kg/injection, schedule: Q01DX001 (ip), vehicle: saline with Tween-80) was 96 % of control and the T/C (dose: 400.0 mg/kg/injection, schedule: Q01DX001 (ip), vehicle: saline with Tween-80) was 99 % of control.
For CC(=N\[O-])/C(C)=N/O.CC(=N\[O-])/C(C)=N/O.CCCN.[Cl-].[Cl-].[Rh+3], the T/C [14] was 98 % of control, the T/C (dose: 12.5 mg/kg/injection, schedule: Q01DX009 (ip), vehicle: saline) was 110 % of control and the T/C [10] was 89 % of control. For the same compound, the T/C [11] was 94 % of control and the T/C [12] was 110 % of control.
For ClCCCCCCCCCCc1ccccc1, the T/C [6] was 106 % of control, the T/C [7] was 109 % of control and 110 % of control and the T/C [9] was 108 % of control and 118 % of control.
